# Like-named read-outs stand apart in the source and are kept apart here.
# What was measured:
# [1] = test system: blood vessels per area formed in the hydrogel; assay: Mouse angiogenesis model, subcutaneous hydrogel implants; format: in vivo, mice; settings: GM6001 intraperitoneally 0.1 mg/g once daily for two weeks
# Text: PEGDA:GSH hydrogel is loaded with one or more GST-polypeptide fusions having a cleavage site for matrix metalloprotease-9 between GST and the polypeptide. Matrix metalloprotease-9 (MMP-9) recognizes the cleavage site having the amino acid sequence […] (SEQ ID NO:5). The loaded hydrogel is implanted in a mouse angiogenesis model to assess the bioactivity of the released polypeptides. Particularly, the polypeptides eGFP (i.e., Green Fluorescent Protein), mCherry (Red Fluorescent Protein), and a cell lytic polypeptide having the amino acid sequence […] (SEQ ID NO:3) are examined in this angiogenesis model.
# Specifically, mice are administered an intraperitoneal injection of ketamine and xylazine (100 mg/kg and 5 mg/kg, respectively), and an injection site is rubbed with 75% ethanol. Anesthesia is indicated by a toe pinch reflex test. All instruments are autoclaved prior to use and standard aseptic technique is followed for the procedure as detailed below. […]
# After 14 days, the inserted hydrogels are removed for whole mount immunostaining to determine the number of blood vessels per area formed in the hydrogel. […] Particularly, after one-hour of blocking, the hydrogel is incubated with anti-CD31 antibody overnight at 4 degrees Celsius to allow for fluorescence imaging of the endothelium formed about and/or within the hydrogel. […]
# [2] = molecular target: glutathione s-transferase; settings: read-out: dissociation constant of glutathione from glutathione s-transferase; cited from earlier work
# [3] = test system: U-87 MG cells; assay: Tumor cell growth inhibition (MTS assay); format: cell-based; settings: 10 μM protein (thrombin 2 U), fusion without thrombin
# Experimental: Tumor Cell Growth Inhibition. All proteins were incubated with thrombin at 37° C. for two hours prior to cellular assays. Malignant glioma cells, U-87 MG, (ATCC, Manassas, Va., 3,000 cells/cm^2) were seeded in a 96 well plate together with appropriate treatments in 100 μL DMEM and 10% FCS (Sigma-Aldrich, St. Louis, Mo.). Treatments included a cell only control (untreated), thrombin (2 U), GST (10 μM), GST-6xHis-melittin (10 μM), GST-6xHis-melittin (10 μM) simultaneously with thrombin (2 U), or synthetic melittin (10 μM; GenScript RP20415, Sigma-Aldrich, St. Louis, Mo.). The cells with their respective treatments were incubated at 37° C. in 5% CO2 overnight, approximately 16 hours. The MTS assay (Promega, Madison, Wis., CellTitre96) was performed according to the manufacturer recommendation and incubated for two hours before reading absorbance at 495 nm on a Labsystems Multiskan plus plate reader (Thermo Scientific, Hanover Park, Ill.).
# [4] = test system: S. pyogenes; assay: Bacterial growth inhibition by free proteins (A600); format: cell-based; settings: 10 μM, at 5 hours
# Experimental: Bacterial Growth Inhibition. Following digestion with thrombin as described above, GSH-agarose beads (GoldBio, St. Louis, Mo.) were used to separate GST from recombinant melittin. Synthetic melittin and GST-6xHis-melittin underwent a similar process without thrombin or being subjected to GSH-agarose treatment. Overnight cultures of S. pyogenes (ATCC, Manassas, Va., BAA-1633) cells were diluted in chemically defined medium were diluted to approximately 10^8 colony forming units (CFUs), corresponding to an absorbance at 600 nm (A600) of 0.1, and 150 μL distributed into 96-well, optical-bottom plates (Greiner BioOne, Frickenhausen, Germany) for treatment. GST-6xHis-melittin, recombinant melittin, or synthetic melittin (10 μM) were then added and the plate was incubated at 37° C. with shaking using a Biotek Synergy 2 plate reader (Winooski, Vt.). Absorbance (A600) measurements were obtained every ten minutes for 12 hours.
# [5] = test system: thrombin; assay: Kinetics of thrombin cleavage of GST-GFP (SDS-PAGE densitometry); format: biochemical; settings: for Km: read-out: Michaelis-Menten constant (Km) of thrombin to GST-GFP
# Experimental: Reaction kinetics were measured by semi-quantitative densitometry of SDS-PAGE gels. Reactions with equivalent concentrations of GST-GFP substrate and varying concentrations of thrombin (0.1, 0.33, 0.75, 1.5, and 3 μM) were incubated at 37° C. for varying amounts of time. In groups where cleavage from microspheres was reported, approximately 10,000 microspheres were used. Reactions were stopped by addition of Laemmli sample buffer (containing SDS) and stored at 4° C. until run on SDS-PAGE. All gels were run with known concentrations of BSA standards. Density measurements were made with NIH imageJ software with gel backgrounds normalized. Each thrombin concentration was run one time, except for […], which was ran in biological triplicate.
# [6] = below 1 mM GSH, after 6 days
# Experimental: Protein Release. GSH mediated release studies were carried out over 6 days. Protein release was measured from 10,000 to 20,000 microspheres into 500 μL PBS in the presence and absence of glutathione. Release was measured with three independent replicates per experimental group. […] Therefore, at each 24-hour time point, glutathione containing buffers were completely replaced. The buffer that was removed was frozen for later analysis. At the completion of the experiment, all frozen samples were thawed and 50 μL of each samples were diluted in PBS and read on a Quantech fluorometer.
compound,measurement,setting,value
CNC(=O)[C@H](Cc1c[nH]c2ccccc12)NC(=O)[C@@H](CC(=O)NO)CC(C)C [GM6001],vessel growth in the hydrogel,[1],limited vessel growth
N[C@@H](CCC(=O)N[C@@H](CS)C(=O)NCC(=O)O)C(=O)O [glutathione],Kd,[2],22 µM
"CC[C@H](C)[C@H](NC(=O)CN)C(=O)NCC(=O)N[C@@H](C)C(=O)N[C@H](C(=O)N[C@@H](CC(C)C)C(=O)N[C@@H](CCCCN)C(=O)N[C@H](C(=O)N[C@@H](CC(C)C)C(=O)N[C@H](C(=O)N[C@H](C(=O)NCC(=O)N[C@@H](CC(C)C)C(=O)N1CCC[C@H]1C(=O)N[C@@H](C)C(=O)N[C@@H](CC(C)C)C(=O)N[C@H](C(=O)N[C@@H](CO)C(=O)N[C@@H](Cc1c[nH]c2ccccc12)C(=O)N[C@H](C(=O)N[C@@H](CCCCN)C(=O)N[C@@H](CCCNC(=N)N)C(=O)N[C@@H](CCCCN)C(=O)N[C@@H](CCCNC(=N)N)C(=O)N[C@@H](CCC(N)=O)C(=O)N[C@@H](CCC(N)=O)C(N)=O)[C@@H](C)CC)[C@@H](C)CC)[C@@H](C)O)[C@@H](C)O)C(C)C)C(C)C [synthetic melittin, melittin, reference compound]",survival of U-87 MG cells,[3],15%
same,growth of S. pyogenes,[4],almost completely inhibited the growth
GST-GFP,apparent Vmax of thrombin mediated release,[5],0.13 µg/min
same,Km,[5]; GST-GFP in association with PEGDA-GSH microspheres,~300 nM
same,Km,[5]; free GST-GFP,~180 nM
same,protein remaining associated with the particles,[6],more than 80%
recombinant melittin: melittin cleaved by thrombin from purified recombinant GST-6xHis-melittin,growth of S. pyogenes,[4],almost completely inhibited the growth

# — patent US9457101B2, “Hydrogels for delivery of therapeutic polypeptides” (priority 2012, dated 2016)
